Results from US5196568A, “Compounds useful in enzymatic resolution systems and their preparation” (priority 1988, dated 1993).
Where a name gives a salt, the structure may show the parent alone.

What was measured:
[1] = system: protease Prozyme 6 (Enzyme F); assay: Homogeneous aqueous enzymatic resolution with Enzyme F; format: biochemical, Aspergillus oryzae; settings: for Conversion in Homogeneous Aqueous Reaction System: 0.5M ester, pH 7.0, 30 C
Procedure: The enzymatic reaction mixtures were capped and briefly shaken until all the substrate had dissolved, and the enzyme had completely dissolved or dispersed. […] Evaporation of the ether left a white solid. The result is summarized below in Table 11 Rotations were measured at c=1 in CHCl3.
The enzymatic reaction mixtures were capped and briefly shaken until all the substrate had dissolved, and the enzyme had completely dissolved or dispersed. […] Evaporation of the ether left a white solid. Rotations were measured at c=1 in CHCl3.
The reaction was started by adding 100 mg of the protease (F) from the fungus Aspergillus oryzae (from Amano Enzyme Corporation, Prozyme 6, 60,000 units per mg of solid).
After 20 hours at room temperature, the solution was acidified to pH 2 and extracted with 3 volumes of diethyl ether. The aqueous phase was saved for subsequent workup. The ether phase was washed with two volumes of distilled water and then one volume of saturated sodium chloride, and then it was dried over MgSO4 and subsequently evaporated to dryness. The resolved ibuprofen product recovered was 930 mg of white powder, indicating 45% conversion of racemic ester to acid. The optical rotation was -0.580° (measured at c=1 in ethanol), indicating the R isomer of ibuprofen.
35 mg of protease Enzyme F, as the commercial preparation Prozyme 6, were added to the aqueous solution. The reaction flask was capped, and briefly shaken until all the enzyme had dissolved or dispersed. […] The resulting mixture was diluted with one volume of water and was extracted with diethyl ether (2 times 200 ml). The ether layers were combined and backwashed with water (2 times 200 ml), saturated NaCl solution (200 ml), and then dried over MgSO4.
In this control run, a 0.5M ester solution of (1) was prepared in 325 ml of 0.1M sodium phosphate buffer (pH 7.0). The reaction was started by adding 3 gm of the above enzyme (F). The pH was controlled at 7.0 with 8.22M sodium hydroxide. After 6.49 hours at 30° C., 6.63 ml of hydroxide were added, indicating 37.7% conversion. The reaction was allowed to continue overnight and, after 23.1 hours, a total of 7.2 ml of sodium hydroxide were added, indicating 40.9% conversion.

[2] = system: Protease XXIII from Aspergillus oryzae (Enzyme A); assay: Homogeneous aqueous enzymatic resolution (ester hydrolysis) with Enzyme A; format: biochemical; settings: acid product (R); 100 mg enzyme A, pH 7.0, 20 hours, 20-22 C
Procedure: No further purification was performed.

[3] = system: lipase from Candida cylindracea (Meito Sangyo, Lipase OF); assay: Activity of Lipase OF against the ester; format: biochemical
[4] = system: protease Prozyme 6 (Enzyme F); assay: Asymmetric hydrolysis in an extractive membrane reactor with Enzyme F; format: biochemical, Aspergillus oryzae
Description: Hexane was recirculated through the lumen or bores of the fibers in the module. The aqueous solution in the shell contained the enzyme and ester. While the cellulose membrane is water-wet, the membrane rejects the macromolecular enzyme (molecular weight 18,000). Therefore, the enzyme resides solely in the aqueous ester solution. As the ibuprofen acid was formed, it was extracted into the hexane phase, thereby reducing the effect of product (ibuprofen acid) inhibition on the activity of the enzyme.
The aqueous phase used to extract the ibuprofen acid from hexane in this module contained 0.1 M sodium carbonate buffer at pH 9.5. The pH was maintained at this value by the addition of 8.22M sodium hydroxide as required.
In this Example, the aqueous stream in the extractive membrane reactor module consisted of a solution of the sulfomethyl ester of ibuprofen (1), which solution was prepared by adding 32.51 gm of the sodium salt of the ester (at 75% chemical purity) to 1000 ml of 0.1M sodium phosphate buffer (pH 7.0). The reaction was started by adding 2 gm of the protease (F) from the fungus Aspergillus oryzae (from Amano Enzyme Corporation, Prozyme 6, 60,000 units per […] of solid). Reaction progress was followed by automatic titrimetry using a pH-stat.
The pH 9.5 solution was then acidified to pH 2 and extracted with 2 volumes of t-butyl methyl ether. The ether phase was first washed with two volumes of distilled water, then dried over MgSO4. and subsequently evaporated to dryness. The resolved ibuprofen product was recovered as about 6 gm of a white powder.
The optical rotation of the recovered product was measured by polarimetry; the experimentally determined value for [α]D was -56.7° (measured at c=0.815 in ethanol), thereby indicating the R isomer of ibuprofen. The sample was also analyzed by chiral HPLC using a Bakerbond DNBPG (covalent) column (4.6×250 mm), with 96.9% hexane:3.0% 2-propanol:0.1% acetonitrile as the mobile phase at 2 ml/min after derivatization with napthalene amine. The detector was a UV spectrophotometer set at 223 nm. The retention times for the S and R ibuprofen acids were 18.5 and 20.0 min, respectively. The optical purity or enantiomeric excess of this R ibuprofen sample as determined by this chiral HPLC procedure was 99.3% (i.e., enantiomeric excess of R ibuprofen).
The aqueous phase at pH 7.0 (as recovered from the extractive membrane reactor) was mixed with 280 gm of sodium chloride to salt out the remaining unconverted ester. The ester was filtered, washed with saturated sodium chloride, and air dried. 12.8 gm of ester were recovered in this manner. […] The optical rotation (as measured by polarimetry) was [α]D =+57.4° (c=1.29 in ethanol), indicating the S isomer of ibuprofen. […]

[5] = system: protease Prozyme 6 (Enzyme F); assay: Asymmetric hydrolysis in an extractive dispersion reactor with Enzyme F; format: biochemical, Aspergillus oryzae; settings: 100 mg Prozyme 6, 3.38 gm ester in 100 ml buffer pH 7.0 and 100 ml hexane, 3.5 hours, room temperature
Procedure: In this Example, the hexane was dispersed in the reaction vessel to extract the inhibitory ibuprofen acid as it is formed. The reaction was started by adding 100 mg of the protease from the fungus Aspergillus oryzae (from Amano Enzyme Corporation, Prozyme 6, 60,000 units per mg of solid).
After 3.5 hours at room temperature with vigorous stirring, the solution was acidified to pH 2 and extracted with 2 volumes of hexane. The aqueous phase was saved for subsequent workup. The hexane phase was dried over MgSO4 and evaporated to dryness. The resolved ibuprofen product so recovered consisted of 490 mg of white powder, indicating 24% conversion. The optical rotation was -0.568° (c=1.015 in ethanol), indicating the R isomer of ibuprofen.

With `CC(C)Cc1ccc(C(C)C(=O)OCS(=O)(=O)O)cc1` (centres unmarked) [Compound 1, Sodium Salt of 4-Sulfomethyl Ester of 2-(4-Isobutylphenyl)propanoic Acid] the “conversion of racemic ester to acid” value ([1]; 100 mg Prozyme 6, 3.22 gm ester in 100 ml 0.2M sodium phosphate pH 7.0, 20 hours, room temperature) was 45%, the conversion ([1]; 3 gm enzyme F, 0.5M ester in 325 ml 0.1M sodium phosphate pH 7.0, 30 C, after 6.49 hours) was 37.7% and the “Conversion in Homogeneous Aqueous Reaction System” value ([1]; 3 gm enzyme F, 23.1 hours) was 40.9%. The “Conversion in Homogeneous Aqueous Reaction System” value ([1]; 3 gm enzyme F, Time 6.75 hrs) was 37.7%, the “% e.e.” value [2] was over 99% and the “activity of the lipase against the ester” value [3] was “inactive”. For the same compound, the “conversion of the racemic ester to the acid” value ([4]; enzyme in aqueous phase and membrane pores, 3 gm Prozyme 6, 0.5M ester, pH 7.0, 6.75 hours at 30 C) was 48.3%, the “conversion of the racemic ester to ibuprofen acid” value ([4]; enzyme in aqueous phase only (cellulose dialysis fibers), 2 gm Prozyme 6, 32.51 gm ester in 1000 ml pH 7.0, hexane, 6.3 hours, room temperature) was 50% and the “enantiomeric excess of R ibuprofen by chiral HPLC (acid product)” value ([4]; enzyme in aqueous phase only, 6.3 hours) was 99.3%. For the same compound, the “enantiomeric excess of S ibuprofen by chiral HPLC (from unconverted ester)” value ([4]; enzyme in aqueous phase only, 6.3 hours, ester hydrolysed at pH 12) was 98.9% and the conversion [5] was 24%.
